Source: patent publication US20040191297A1, “Carotenoid formulation” (priority 1997, published 2004)

Legend:
[1] = system: retinol; assay: Liver vitamin A assay; format: in vivo, Fischer 344 rats; details: for Liver retinol: female
Source text: The effect of the tomato carotenoid supplement on the absorption and storage of two important fat soluble vitamins, namely, retinol and α-tocopherol, was investigated. Using established HPLC methods, a strong liner dose-response relationship was found between the lycopene content of the liver and both retinol and a-tocopherol concentration in female R-344 rats (Table 23).

[2] = Lycopene content of rat mammary gland; format: in vivo, Fischer 344 rats; details: female
Source text: homogenized. […] This hexane extraction procedure was repeated 5-7 times.

[3] = system: glutathione; assay: Total glutathione assays of blood, liver and kidney; format: in vivo, Fischer 344 rats
Source text: The rationale for measuring glutathione is that the reduced form of the tripeptide thiol, glutathione (Glu-Cys-Gly), participates directly in several key intracellular reactions, including protection against free radical damage. In contrast to carotenoids, which reside in the lipid phase, glutathione is found in the aqueous phase of the cell and there is evidence that lipid and aqueous phase anti-oxidants may interact with one another in such a manner that high levels of one may “spare” or limit the deletion of the other. Total (reduced and oxidized) glutathione assays of blood, liver and kidney (Tables 20-22) were conducted.
The determination of glutathione was by HPLC with dual electrochemical detection (see Kleinman, W. A. & Richie, J. P., J. Chromatogr B 672:73-80, 1995). only 1 case, at the highest lycopene level, was there a significant increase in glutathione levels and this occurred only in the liver.

[4] = Fecal lycopene analysis (24 hour fecal pellets); format: in vivo, rat; details: for Fecal lycopene: male rat, 744 μg/g in diet
Experimental: Prior to termination, 3 animals from each group were placed in metabolic cages and 24-hour urine and fecal collections made for subsequent lycopene assay. Blood was collected by heart puncture under anesthesia for lycopene assay and all animals were sacrificed by CO2 anesthesia. Blood and feces were stored at −20° C. At necropsy, all major organ systems were grossly inspected. Any unusual appearing tissues were placed in formalin and saved for later histological examination.
Extraction of lycopene from diet was as follows: A sample of diet containing lycopene was suspended in the injection solvent (Table 4) and homogenized in a polytron homogenizer. Echinenone was added as an internal standard and the mixture centrifuged at 3000 rpm at 4° C. for 15 minutes. The supernatant was decanted and saved and the extraction repeated. The pooled extracts were then dried under N2 gas at 60° C. and the residue dissolved in 0.5 ml injection solvent and then subjected to HPLC analysis. The same method, with minor variations, was used for feces and for lung tissue. The efficiency of lycopene extraction from the diet is shown in Table 6 A&B. At any concentration tested the efficiency ranged from 75% at the highest concentration to 100% for the lowest concentration of lycopene.
The possibility that some lycopene decomposed upon storage prior to extraction must also be considered. […] This, no doubt, is due to the presence of water in the fecal pellet and to the geometry of the pellet. Once freeze-dried, the fecal pellet can easily be powdered, permitting easier access of the solvent to the fecal matrix.

[5] = in vivo; details: Fischer 344, rat
Experimental: Breast, liver and prostate tissue contain lipids which interfere with the assay. Consequently, a saponification step was required prior to organic extraction. Tissue was homogenized in 20 ml methanol to which echinenone was added as internal standard. For breast tissue, which comprise of 85% adipocytes, 8.0 ml 50% NaOH and 4.0 ml 25% sodium ascorbate was added and the mixture was homogenized. For prostate and liver tissue, which contain less lipid, 4.0 ml and 50% NaOH. and 2.0 ml sodium ascorbate were added and the mixture was
homogenized. Saponification was carried out in 50 ml tubes saturated with N2 gas overnight in a temperature controlled shaker bath at 30° C. Following saponification, 10 ml hexane was add d to each tube and vortexed for 1 minute. The mixture was then centrifuged at 2000 rpm for 10 min at 4° C. and the hexane layer was decanted and saved. This hexane extraction procedure was repeated 5-7 times. The pooled hexane extract was then dried under N2 gas at 60° C., dissolved in injection solvent and analyzed by HPLC. Lung and colon tissue were processed in an identical manner with the exception that the saponification step was omitted.

[6] = Preliminary feeding study, one male rat, 3 weeks; format: in vivo; details: 2.5 mM/kg diet
Experimental: One male rat was fed 2.5 mM lycopene (+other carotenoids)/kg diet for a period of 3 weeks. At this high dose, no change in body weight or food consumption was seen. […] The tail was brown. At necropsy, the liver was a deep red, as was the cecum and small intestine.

[7] = Stability of lycopene incorporated into AIN-76A diet at ambient temperature in food cup (air and light); format: physicochemical; details: for Concentration: ambient temperature
Experimental: At various time points, a diet sample was taken and lycopene was extracted as follows: Approximately 0.5 to 1.0 g of sample was added to a 15 ml volume of extraction solvent consisting of 40% acetonitrile, 20% hexane, 20% methanol and 20% methylenechloride. The mixture was sonicated for 2 minutes and allowed to stand for 5 minutes. The reddish-orange clear supernatant was then decanted. This process was repeated 4 times, at which time the supernatant was colorless. Solvent was then added to a volume of 25 to 100 ml, the mixture centrifuged, and the supernatant decanted. All supernatants were then mixed. The above solvent serves two purposes; first, it is the most efficient mixture for lycopene, and second, it is the same solvent used for injecting lycopene samples into the HPLC.
The second was by exposing the lycopene-containing diet to air and light, as is the case in an actual feeding study. The stability of lycopene in the food cup where it is exposed to light and air is seen in Table 9.

[8] = lyophilization + organic extraction

With `CC(C)=CCC/C(C)=C/C=C/C(C)=C/C=C/C(C)=C/C=C/C=C(C)/C=C/C=C(C)/C=C/C=C(\C)CCC=C(C)C` [Lycopene] as the compound, how does the “difference in liver retinol between controls and the highest lycopene dose” value ([1]; female rats) read?
Its value is 10 fold.

And the Liver retinol ([1]; Group 1, lycopene 1280 mg/kg diet)?
The Liver retinol was 1302 μg/gm.

What about the Liver retinol ([1]; Group 2, lycopene 512 mg/kg diet) of the same compound?
Its Liver retinol is 768 μg/gm.

And the Liver retinol ([1]; Group 3, lycopene 256 mg/kg diet)?
Its Liver retinol is 858 μg/gm.

And the Liver retinol ([1]; Group 4, lycopene 128 mg/kg diet)?
The Liver retinol was 888 μg/gm.

And the Liver retinol ([1]; Group 5, lycopene 51 mg/kg diet)?
The Liver retinol was 555 μg/gm.

And the “Lycopene content of mammary gland, Median” value (“Lycopene content … Median” below) ([2]; Group 1 (1280 mg/kg diet))?
The value was 235 ng/g.

And the “Lycopene content of mammary gland, Range” value ([2]; Group 1 (1280 mg/kg diet))?
The value was 232 to 460 ng/g.

What about the “Lycopene content of mammary gland, mean ± SD” value (shortened to “Lycopene content … mean ± SD”) ([2]; Group 1 (1280 mg/kg diet)) of the same compound?
The value was 309 ± 131 ng/g.

And the “Lycopene content … Median” value ([2]; Group 2 (512 mg/kg diet))?
Its value is 197 ng/g.

What about the “Lycopene content of mammary gland, Range” value ([2]; Group 2 (512 mg/kg diet)) of the same compound?
Its value is 172 to 231 ng/g.

What about the “Lycopene content … mean ± SD” value ([2]; Group 2 (512 mg/kg diet)) of the same compound?
Its value is 200 ± 030 ng/g.

What about the “Lycopene content … Median” value ([2]; Group 3 (256 mg/kg diet)) of the same compound?
The value was 220 ng/g.

And the “Lycopene content of mammary gland, Range” value ([2]; Group 3 (256 mg/kg diet))?
Its value is 139 to 282 ng/g.

And the “Lycopene content … mean ± SD” value ([2]; Group 3 (256 mg/kg diet))?
The value was 215 ± 062 ng/g.

What about the “Lycopene content … Median” value ([2]; Group 4 (128 mg/kg diet)) of the same compound?
The value was 217 ng/g.

And the “Lycopene content of mammary gland, Range” value ([2]; Group 4 (128 mg/kg diet))?
Its value is 181 to 288 ng/g.

And the “Lycopene content … mean ± SD” value ([2]; Group 4 (128 mg/kg diet))?
The value was 229 ± 054 ng/g.

And the “Lycopene content … Median” value ([2]; Group 5 (51 mg/kg diet))?
The value was 143 ng/g.

And the “Lycopene content of mammary gland, Range” value ([2]; Group 5 (51 mg/kg diet))?
Its value is 139 to 239 ng/g.

What about the “Lycopene content … mean ± SD” value ([2]; Group 5 (51 mg/kg diet)) of the same compound?
The value was 174 ± 057 ng/g.

What about the Kidney glutathione ([3]; female, lycopene 51 ppm) of the same compound?
The Kidney glutathione was 0.900 ± 0.101^ μmol/g.

What about the Liver glutathione ([3]; female, lycopene 51 ppm) of the same compound?
The Liver glutathione was 6.01 ± 0.309 µmol/g.

And the Whole blood glutathione ([3]; female, lycopene 51 ppm)?
The Whole blood glutathione was 0.832 ± 0.158^+ μmol/g.

And the Kidney glutathione ([3]; female, lycopene 128 ppm)?
Its Kidney glutathione is 0.950 ± 0.0758^ μmol/g.

And the Liver glutathione ([3]; female, lycopene 128 ppm)?
Its Liver glutathione is 6.54 ± 1.09^+ μmol/g.

And the Whole blood glutathione ([3]; female, lycopene 128 ppm)?
The Whole blood glutathione was 0.890 ± 0.202 µmol/g.

And the Kidney glutathione ([3]; female, lycopene 256 ppm)?
Its Kidney glutathione is 1.030 ± 0.414^+ μmol/g.

What about the Liver glutathione ([3]; female, lycopene 256 ppm) of the same compound?
The Liver glutathione was 4.87 ± 1.14 µmol/g.

And the Whole blood glutathione ([3]; female, lycopene 256 ppm)?
The Whole blood glutathione was 0.848 ± 0.0988 µmol/g.

What about the Kidney glutathione ([3]; female, lycopene 512 ppm) of the same compound?
Its Kidney glutathione is 1.090 ± 0.163^+ μmol/g.

What about the Liver glutathione ([3]; female, lycopene 512 ppm) of the same compound?
Its Liver glutathione is 5.88 ± 0.492 µmol/g.

And the Whole blood glutathione ([3]; female, lycopene 512 ppm)?
The Whole blood glutathione was 0.930 ± 0.123 µmol/g.

And the Kidney glutathione ([3]; female, lycopene 1280 ppm)?
Its Kidney glutathione is 0.089 ± 0.045^+ μmol/g.

And the Liver glutathione ([3]; female, lycopene 1280 ppm)?
Its Liver glutathione is 7.38 ± 0.705^+ μmol/g.

And the Whole blood glutathione ([3]; female, lycopene 1280 ppm)?
The Whole blood glutathione was 1.080 ± 0.104 µmol/g.

And the “dose-related changes in glutathione” value ([3]; liver, kidney or whole blood)?
Its value is “No dose-related changes”.

What about the Kidney glutathione ([3]; male, lycopene 51 ppm) of the same compound?
Its Kidney glutathione is 0.688 ± 0.316 µmol/g.

And the Liver glutathione ([3]; male, lycopene 51 ppm)?
Its Liver glutathione is 6.77 ± 1.53 µmol/g.

What about the Whole blood glutathione ([3]; male, lycopene 51 ppm) of the same compound?
Its Whole blood glutathione is 1.030 ± 0.0387 µmol/g.

What about the Kidney glutathione ([3]; male, lycopene 128 ppm) of the same compound?
The Kidney glutathione was 0.686 ± 0.170 µmol/g.

What about the Liver glutathione ([3]; male, lycopene 128 ppm) of the same compound?
Its Liver glutathione is 5.38 ± 0.363 µmol/g.

And the Whole blood glutathione ([3]; male, lycopene 128 ppm)?
Its Whole blood glutathione is 0.920 ± 0.169 µmol/g.

And the Kidney glutathione ([3]; male, lycopene 256 ppm)?
Its Kidney glutathione is 0.624 ± 0.104 µmol/g.

And the Liver glutathione ([3]; male, lycopene 256 ppm)?
The Liver glutathione was 4.59 ± 1.37 µmol/g.

What about the Whole blood glutathione ([3]; male, lycopene 256 ppm) of the same compound?
Its Whole blood glutathione is 0.910 ± 0.106 µmol/g.

And the Kidney glutathione ([3]; male, lycopene 512 ppm)?
The Kidney glutathione was 0.854 ± 0.055^+ μmol/g.

And the Whole blood glutathione ([3]; male, lycopene 512 ppm)?
Its Whole blood glutathione is 0.990 ± 0.141 µmol/g.

What about the Kidney glutathione ([3]; male, lycopene 1280 ppm) of the same compound?
Its Kidney glutathione is 0.828 ± 0.128^+ μmol/g.

And the Liver glutathione ([3]; male, lycopene 1280 ppm)?
The Liver glutathione was 7.16 ± 1.95^+ μmol/g.

What about the Whole blood glutathione ([3]; male, lycopene 1280 ppm) of the same compound?
The Whole blood glutathione was 0.948 ± 0.294 µmol/g.

What about the “24 hr fecal lycopene” value [4, 8] of the same compound?
The value was 5,406 μg.

And the Fecal lycopene [4, 8]?
Its Fecal lycopene is 3,754 μg/g.

And the Fecal lycopene ([4]; organic extraction)?
Its Fecal lycopene is 2,992 μg/g.

And the “24 hr fecal lycopene” value ([4]; organic extraction)?
The value was 4,309 μg.

What about the “% Efficiency (fecal output/input)” value ([4]; organic extraction) of the same compound?
The value was 44%.

And the Kp [5]?
The Kp was 100 to 1000.

What about the “change in body weight or food consumption” value [6] of the same compound?
Its value is “no change”.

And the “stability in the diet” value ([7]; 7 days at ambient light and temperature)?
Its value is “stable”.

What about the Concentration ([7]; AIN-76A diet, 0 days in food cup) of the same compound?
Its Concentration is 744 µg/g.

And the Concentration ([7]; 2 days in food cup)?
The Concentration was 702 µg/g.

What about the Concentration ([7]; 3 days in food cup) of the same compound?
Its Concentration is 616 µg/g.

What about the Concentration ([7]; 6 days in food cup) of the same compound?
Its Concentration is 547 µg/g.

What about the Concentration ([7]; 7 days in food cup) of the same compound?
Its Concentration is 439 µg/g.

And the Concentration ([7]; 9 days in food cup)?
The Concentration was 624 µg/g.

What about the Concentration ([7]; 10 days in food cup) of the same compound?
Its Concentration is 576 µg/g.

What about the Concentration ([7]; 13 days in food cup) of the same compound?
Its Concentration is 449 µg/g.

And the Concentration ([7]; 14 days in food cup)?
The Concentration was 419 µg/g.

And the Concentration ([7]; 15 days in food cup)?
Its Concentration is 425 µg/g.

And the Concentration ([7]; 17 days in food cup)?
The Concentration was 431 µg/g.

What about the Concentration ([7]; 20 days in food cup) of the same compound?
Its Concentration is 385 µg/g.

And the Concentration ([7]; 21 days in food cup)?
The Concentration was 376 µg/g.

And the “original lycopene no longer measurable” value ([7]; food cup, air and light, 3 weeks)?
The value was “one-half”.

And the lycopene lost ([7]; food cup, air and light, 48-hour period)?
Its lycopene lost is “a small amount is lost”.

What about the total lycopene lost ([7]; food cup, air and light, 72 hours) of the same compound?
The total lycopene lost was “approximately 20%”.
